Patent US20250171437A1 (Agios Pharmaceuticals,Inc., priority 2022, published 2025)

Biological target: T1, human PAH with the R408W mutation (A375 R408W cells) (Homo sapiens, UniProt P00439, R408W)
T1 construct: expressed in transfected cells
T1 sequence (P00439 1-452 R408W): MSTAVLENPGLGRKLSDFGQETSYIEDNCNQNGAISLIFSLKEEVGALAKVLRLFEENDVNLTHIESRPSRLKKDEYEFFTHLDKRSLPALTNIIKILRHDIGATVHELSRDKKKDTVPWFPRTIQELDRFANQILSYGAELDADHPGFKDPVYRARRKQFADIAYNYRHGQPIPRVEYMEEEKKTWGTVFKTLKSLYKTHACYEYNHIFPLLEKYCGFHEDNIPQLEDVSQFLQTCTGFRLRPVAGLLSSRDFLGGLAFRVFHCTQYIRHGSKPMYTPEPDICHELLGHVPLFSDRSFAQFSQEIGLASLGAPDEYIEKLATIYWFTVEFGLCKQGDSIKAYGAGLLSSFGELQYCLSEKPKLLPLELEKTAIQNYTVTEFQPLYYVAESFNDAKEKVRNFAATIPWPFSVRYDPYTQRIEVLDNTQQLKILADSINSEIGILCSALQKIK
Assay: Cell Based Phenylalanine Flux Assay
Conditions: A375 R408W cells; 24 hrs with compound, then 20 μM sepiapterin and 800 μM 13C9,15N-Phenylalanine for 4 hours; 13C-Tyrosine by LC-MS; average where tested multiple times
Outline: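 LC-MS quantitation of 13C-tyrosine in media gave AC50 values. Stable A375 R408W PAH cells were preincubated 24 h with compound, then fed 800 μM labelled Phe plus 20 μM sepiapterin for 4 h. Dose curves were 10-point, tested in duplicate, averaged over repeat runs.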

AC50 [nM] | Compound
500 to 1000 | COc1cc(F)cc2nc([C@H]3c4nc[nH]c4CCN3C(=O)c3ocnc3C(F)F)oc12 [Example 717, (R)-(4-(difluoromethyl)oxazol-5-yl)(4-(5-fluoro-7-methoxybenzo[d]oxazol-2-yl)-6,7-dihydro-1H-imidazo[4,5-c]pyridin-5(4H)-yl)methanone]
≤ 500 | COc1cc(F)cc2nc([C@@H]3c4nc[nH]c4CCN3C(=O)c3ocnc3C(F)F)oc12 [Example 718, (S)-(4-(difluoromethyl)oxazol-5-yl)(4-(5-fluoro-7-methoxybenzo[d]oxazol-2-yl)-6,7-dihydro-1H-imidazo[4,5-c]pyridin-5(4H)-yl)methanone]
≤ 500 | Cc1c(F)ccc2oc([C@@H]3c4nc[nH]c4CCN3C(=O)c3oc(C(C)(C)O)nc3C(F)F)nc12 [Example 719, (S)-(4-(difluoromethyl)-2-(2-hydroxypropan-2-yl)oxazol-5-yl)(4-(5-fluoro-4-methylbenzo[d]oxazol-2-yl)-6,7-dihydro-1H-imidazo[4,5-c]pyridin-5(4H)-yl)methanone]
500 to 1000 | Cc1c(F)ccc2oc([C@H]3c4nc[nH]c4CCN3C(=O)c3oc(C(C)(C)O)nc3C(F)F)nc12 [Example 720, (R)-(4-(difluoromethyl)-2-(2-hydroxypropan-2-yl)oxazol-5-yl)(4-(5-fluoro-4-methylbenzo[d]oxazol-2-yl)-6,7-dihydro-1H-imidazo[4,5-c]pyridin-5(4H)-yl)methanone]
1000 to 5000 | Cc1c(F)ccc2oc([C@H]3c4nc[nH]c4CCN3C(=O)c3ocnc3C(F)F)nc12 [Example 721, (R)-(4-(difluoromethyl)oxazol-5-yl)(4-(5-fluoro-4-methylbenzo[d]oxazol-2-yl)-6,7-dihydro-1H-imidazo[4,5-c]pyridin-5(4H)-yl)methanone]
≤ 500 | Cc1c(F)ccc2oc([C@@H]3c4nc[nH]c4CCN3C(=O)c3ocnc3C(F)F)nc12 [Example 722, (S)-(4-(difluoromethyl)oxazol-5-yl)(4-(5-fluoro-4-methylbenzo[d]oxazol-2-yl)-6,7-dihydro-1H-imidazo[4,5-c]pyridin-5(4H)-yl)methanone]
≤ 500 | Cc1ccc(F)c2nc([C@@H]3c4nc[nH]c4CCN3C(=O)c3oc(C(C)(C)O)nc3C(F)F)oc12 [Example 723, (S)-(4-(difluoromethyl)-2-(2-hydroxypropan-2-yl)oxazol-5-yl)(4-(4-fluoro-7-methylbenzo[d]oxazol-2-yl)-6,7-dihydro-1H-imidazo[4,5-c]pyridin-5(4H)-yl)methanone]
1000 to 5000 | Cc1ccc(F)c2nc([C@H]3c4nc[nH]c4CCN3C(=O)c3oc(C(C)(C)O)nc3C(F)F)oc12 [Example 724, (R)-(4-(difluoromethyl)-2-(2-hydroxypropan-2-yl)oxazol-5-yl)(4-(4-fluoro-7-methylbenzo[d]oxazol-2-yl)-6,7-dihydro-1H-imidazo[4,5-c]pyridin-5(4H)-yl)methanone]
≤ 500 | O=C(c1ccnn1C1CC1)N1CCc2[nH]cnc2[C@H]1c1nc2ccccc2o1 [Example 725, (S)-(4-(benzo[d]oxazol-2-yl)-6,7-dihydro-1H-imidazo[4,5-c]pyridin-5(4H)-yl)(1-cyclopropyl-1H-pyrazol-5-yl)methanone]
500 to 1000 | O=C(c1ccnn1C1CC1)N1CCc2[nH]cnc2[C@H]1c1nc2cccc(F)c2o1 [Example 727, (S)-(1-cyclopropyl-1H-pyrazol-5-yl)(4-(7-fluorobenzo[d]oxazol-2-yl)-6,7-dihydro-1H-imidazo[4,5-c]pyridin-5(4H)-yl)methanone]
≥ 5000 | O=C(c1ccnn1C1CC1)N1CCc2[nH]cnc2[C@@H]1c1nc2cccc(F)c2o1 [Example 728, (R)-(1-cyclopropyl-1H-pyrazol-5-yl)(4-(7-fluorobenzo[d]oxazol-2-yl)-6,7-dihydro-1H-imidazo[4,5-c]pyridin-5(4H)-yl)methanone]
500 to 1000 | O=C(c1ccnn1-c1ccccn1)N1CCc2[nH]cnc2[C@H]1c1nc2cccc(F)c2o1 [Example 729, (S)-(4-(7-fluorobenzo[d]oxazol-2-yl)-6,7-dihydro-1H-imidazo[4,5-c]pyridin-5(4H)-yl)(1-(pyridin-2-yl)-1H-pyrazol-5-yl)methanone]
≤ 500 | Cn1nc(C(F)F)cc1C(=O)N1CCc2[nH]cnc2[C@H]1c1nc2ccccc2o1 [Example 731, (S)-(4-(benzo[d]oxazol-2-yl)-6,7-dihydro-1H-imidazo[4,5-c]pyridin-5(4H)-yl)(3-(difluoromethyl)-1-methyl-1H-pyrazol-5-yl)methanone]
≥ 5000 | Cn1nc(C(F)F)cc1C(=O)N1CCc2[nH]cnc2[C@@H]1c1nc2ccccc2o1 [Example 732, (R)-(4-(benzo[d]oxazol-2-yl)-6,7-dihydro-1H-imidazo[4,5-c]pyridin-5(4H)-yl)(3-(difluoromethyl)-1-methyl-1H-pyrazol-5-yl)methanone]
≤ 500 | Cn1nc(C(F)F)cc1C(=O)N1CCc2[nH]cnc2[C@H]1c1nc2cccc(F)c2o1 [Example 733, (S)-(3-(difluoromethyl)-1-methyl-1H-pyrazol-5-yl)(4-(7-fluorobenzo[d]oxazol-2-yl)-6,7-dihydro-1H-imidazo[4,5-c]pyridin-5(4H)-yl)methanone]
1000 to 5000 | Cn1nc(C(F)F)cc1C(=O)N1CCc2[nH]cnc2[C@@H]1c1nc2cccc(F)c2o1 [Example 734, (R)-(3-(difluoromethyl)-1-methyl-1H-pyrazol-5-yl)(4-(7-fluorobenzo[d]oxazol-2-yl)-6,7-dihydro-1H-imidazo[4,5-c]pyridin-5(4H)-yl)methanone]
≤ 500 | Cc1cccc2nc([C@@H]3c4nc[nH]c4CCN3C(=O)c3cc(C(F)F)nn3C)oc12 [Example 735]
1000 to 5000 | Cc1cccc2nc([C@H]3c4nc[nH]c4CCN3C(=O)c3cc(C(F)F)nn3C)oc12 [Example 736]
≤ 500 | Cc1ccc2oc([C@@H]3c4nc[nH]c4CCN3C(=O)c3oc(-c4ccccn4)nc3C(F)F)nc2c1 [Example 737, (S)-(4-(difluoromethyl)-2-(pyridin-2-yl)oxazol-5-yl)(4-(5-methylbenzo[d]oxazol-2-yl)-6,7-dihydro-1H-imidazo[4,5-c]pyridin-5(4H)-yl)methanone]
1000 to 5000 | Cc1ccc2oc([C@H]3c4nc[nH]c4CCN3C(=O)c3oc(-c4ccccn4)nc3C(F)F)nc2c1 [Example 738, (R)-(4-(difluoromethyl)-2-(pyridin-2-yl)oxazol-5-yl)(4-(5-methylbenzo[d]oxazol-2-yl)-6,7-dihydro-1H-imidazo[4,5-c]pyridin-5(4H)-yl)methanone]
500 to 1000 | O=C(c1oc(-c2ccccn2)nc1C(F)F)N1CCc2[nH]cnc2[C@@H]1c1nc2ccccc2o1 [Example 739, (R)-(4-(benzo[d]oxazol-2-yl)-6,7-dihydro-1H-imidazo[4,5-c]pyridin-5(4H)-yl)(4-(difluoromethyl)-2-(pyridin-2-yl)oxazol-5-yl)methanone]
≤ 500 | O=C(c1oc(-c2ccccn2)nc1C(F)F)N1CCc2[nH]cnc2[C@H]1c1nc2ccccc2o1 [Example 740, (S)-(4-(benzo[d]oxazol-2-yl)-6,7-dihydro-1H-imidazo[4,5-c]pyridin-5(4H)-yl)(4-(difluoromethyl)-2-(pyridin-2-yl)oxazol-5-yl)methanone]
≤ 500 | O=C(c1oc(-c2cncnc2)nc1C(F)F)N1CCc2[nH]cnc2[C@@H]1c1nc2cccc(F)c2o1 [Example 741, (R)-(4-(difluoromethyl)-2-(pyrimidin-5-yl)oxazol-5-yl)(4-(7-fluorobenzo[d]oxazol-2-yl)-6,7-dihydro-1H-imidazo[4,5-c]pyridin-5(4H)-yl)methanone]
≤ 500 | O=C(c1oc(-c2cncnc2)nc1C(F)F)N1CCc2[nH]cnc2[C@H]1c1nc2cccc(F)c2o1 [Example 742, (S)-(4-(difluoromethyl)-2-(pyrimidin-5-yl)oxazol-5-yl)(4-(7-fluorobenzo[d]oxazol-2-yl)-6,7-dihydro-1H-imidazo[4,5-c]pyridin-5(4H)-yl)methanone]
≤ 500 | Cc1ccc(F)c2nc([C@@H]3c4nc[nH]c4CCN3C(=O)c3ocnc3C(F)F)oc12 [Example 743, (S)-(4-(difluoromethyl)oxazol-5-yl)(4-(4-fluoro-7-methylbenzo[d]oxazol-2-yl)-6,7-dihydro-1H-imidazo[4,5-c]pyridin-5(4H)-yl)methanone]
≤ 500 | Cc1ccc(F)c2nc([C@H]3c4nc[nH]c4CCN3C(=O)c3ocnc3C(F)F)oc12 [Example 744, (R)-(4-(difluoromethyl)oxazol-5-yl)(4-(4-fluoro-7-methylbenzo[d]oxazol-2-yl)-6,7-dihydro-1H-imidazo[4,5-c]pyridin-5(4H)-yl)methanone]
500 to 1000 | Cc1ccc2oc([C@@H]3c4nc[nH]c4CCN3C(=O)c3ncnn3C)nc2c1 [Example 745, (S)-(1-methyl-1H-1,2,4-triazol-5-yl)(4-(5-methylbenzo[d]oxazol-2-yl)-6,7-dihydro-1H-imidazo[4,5-c]pyridin-5(4H)-yl)methanone]
1000 to 5000 | Cc1ccc2oc([C@H]3c4nc[nH]c4CCN3C(=O)c3ncnn3C)nc2c1 [Example 746, (R)-(1-methyl-1H-1,2,4-triazol-5-yl)(4-(5-methylbenzo[d]oxazol-2-yl)-6,7-dihydro-1H-imidazo[4,5-c]pyridin-5(4H)-yl)methanone]
